Experimental data published in ChEMBL document CHEMBL1132460, “Affinity and selectivity of matrix metalloproteinase inhibitors: a chemometrical study from the perspective of ligands and proteins” (J Med Chem, 1999).

Experiments:
Stromelysin-1 = Stromelysin-1 (Homo sapiens, UniProt P08254); experiment: Inhibitory concentration against human matrix metalloprotease-3 (MMP-3)
[1] = Affinity ratio of IC50 of MMP-8 to IC50 of MMP-3
[2] = Affinity ratio of IC50 of MMP-3 to IC50 of MMP-8
Neutrophil collagenase = Neutrophil collagenase (Homo sapiens, UniProt P22894); experiment: Inhibitory concentration against human matrix metalloprotease-8 (human neutrophil collagenase, MMP-8)
Sequence of Neutrophil collagenase (P22894 whole entry): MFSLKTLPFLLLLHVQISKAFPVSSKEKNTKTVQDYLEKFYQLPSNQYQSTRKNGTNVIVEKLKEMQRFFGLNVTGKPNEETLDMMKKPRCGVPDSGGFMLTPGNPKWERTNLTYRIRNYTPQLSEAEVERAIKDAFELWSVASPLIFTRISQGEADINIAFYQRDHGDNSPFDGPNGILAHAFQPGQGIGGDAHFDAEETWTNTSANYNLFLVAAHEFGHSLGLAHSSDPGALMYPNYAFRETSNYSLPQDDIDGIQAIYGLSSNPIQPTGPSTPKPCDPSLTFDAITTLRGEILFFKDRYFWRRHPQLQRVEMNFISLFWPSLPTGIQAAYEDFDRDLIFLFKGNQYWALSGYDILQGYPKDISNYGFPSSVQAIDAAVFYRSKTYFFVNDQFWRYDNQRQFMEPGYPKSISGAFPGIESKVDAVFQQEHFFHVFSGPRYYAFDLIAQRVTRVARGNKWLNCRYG

Sequence of Stromelysin-1 (P08254 whole entry): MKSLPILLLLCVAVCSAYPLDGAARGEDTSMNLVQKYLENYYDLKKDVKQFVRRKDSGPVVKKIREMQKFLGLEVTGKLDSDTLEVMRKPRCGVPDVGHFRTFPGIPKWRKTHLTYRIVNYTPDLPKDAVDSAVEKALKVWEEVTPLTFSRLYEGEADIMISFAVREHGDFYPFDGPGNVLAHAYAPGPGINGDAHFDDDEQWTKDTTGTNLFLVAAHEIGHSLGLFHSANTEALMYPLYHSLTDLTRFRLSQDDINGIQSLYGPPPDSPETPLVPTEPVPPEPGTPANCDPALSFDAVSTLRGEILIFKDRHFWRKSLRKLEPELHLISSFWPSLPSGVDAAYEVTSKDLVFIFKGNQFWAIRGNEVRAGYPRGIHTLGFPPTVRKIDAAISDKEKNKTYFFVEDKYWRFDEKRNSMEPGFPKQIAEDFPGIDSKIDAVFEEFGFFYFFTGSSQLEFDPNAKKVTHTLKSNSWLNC

Row | SMILES | IC50 (Stromelysin-1; read-out: IC50) | Selectivity [1] | log10(IC50 MMP-3/IC50 MMP-8) [2] | IC50 (Neutrophil collagenase) | IC50 (Stromelysin-1)
1 | O=C(O)[C@H]1Cc2ccccc2CN1S(=O)(=O)c1ccc(-c2ccc(F)cc2)cc1 | 400 nM | 1.3 | – | – | –
2 | CCOC(=O)Nc1ccc(S(=O)(=O)N2Cc3ccccc3CC2C(=O)NO)cc1 (stereo not drawn) | – | – | 1.22 | – | –
3 | COc1ccc(S(=O)(=O)N2Cc3ccccc3C[C@H]2C(=O)NO)cc1 | 7000 nM | – | 0.85 | – | –
4 | O=C(NO)C1Cc2ccccc2CN1S(=O)(=O)c1ccc(N2CCOCC2)cc1 (stereo not drawn) | 300 nM | – | 0.48 | 100 nM | –
5 | O=C(NO)[C@H]1Cc2c([nH]c3ccccc23)CN1S(=O)(=O)c1ccc(N2CCOCC2)cc1 | – | – | 0.63 | – | –
6 | COc1ccc(S(=O)(=O)N2Cc3cc(NC(=O)OC(C)(C)C)ccc3CC2C(=O)NO)cc1 (stereo not drawn) | 20 nM | – | 0.82 | 3 nM | –
7 | O=C(NO)C1Cc2ccccc2CN1S(=O)(=O)c1cc(S(=O)(=O)c2ccccc2)cs1 (stereo not drawn) | – | – | 0.7 | 2000 nM | 10000 nM l-1
8 | O=C(NO)C1Cc2ccccc2CN1S(=O)(=O)Cc1ccccc1 (stereo not drawn) | – | – | – | 3000 nM | 10000 nM l-1
9 | O=C(NO)C1Cc2ccccc2CN1S(=O)(=O)c1ccc2[nH]c(-c3ccccc3)nc2c1 (stereo not drawn) | 500 nM | – | 1.1 | 40 nM | –
10 | COc1ccc(S(=O)(=O)N2Cc3cc(N)ccc3CC2C(=O)NO)cc1 (stereo not drawn) | 10 nM | – | – | – | –
11 | O=C(O)[C@H]1Cc2c([nH]c3ccccc23)CN1S(=O)(=O)c1ccc(Oc2ccccc2)cc1 | – | – | 1.3 | – | –
12 | COc1ccc(S(=O)(=O)N2Cc3cc(NC(=O)[C@H](CC(=O)OC(C)(C)C)NC(=O)Cc4ccccc4)ccc3CC2C(=O)NO)cc1 (stereo partly drawn) | 40 nM | – | 0.6 | 10 nM | –
13 | O=C(O)C1Cc2ccc(O)cc2CN1S(=O)(=O)c1ccc(-c2ccc(Cl)cc2)cc1 (stereo not drawn) | 200 nM | – | – | 20 nM | –
14 | O=C(O)[C@@H]1Cc2ccccc2CN1S(=O)(=O)c1ccc(-c2ccc(F)cc2)cc1 | – | 0.4 | – | – | 10000 nM l-1
15 | CC(C)(C)OC(=O)Nc1ccc2c(c1)CC(C(=O)O)N(S(=O)(=O)c1ccc(-c3ccc(F)cc3)cc1)C2 (stereo not drawn) | 400 nM | 1.12 | – | 30 nM | –
16 | CC(C)(C)OC(=O)Nc1ccc2c(c1)CN(S(=O)(=O)c1ccc(-c3ccc(F)cc3)cc1)C(C(=O)NO)C2 (stereo not drawn) | 100 nM | – | 1 | 10 nM | –
17 | COc1ccc(S(=O)(=O)N2Cc3[nH]c4ccccc4c3C[C@@H]2C(=O)NO)cc1 | – | – | 0.82 | – | –

Row | SMILES | IC50 (Stromelysin-1; read-out: IC50) | Selectivity [1] | log10(IC50 MMP-3/IC50 MMP-8) [2] | IC50 (Neutrophil collagenase) | IC50 (Stromelysin-1)
18 | O=C(NO)C1Cc2ccccc2CN1S(=O)(=O)c1cc(Br)c(Br)s1 (stereo not drawn) | – | – | 1.3 | 500 nM | 10000 nM l-1
19 | O=C(c1ccccc1)c1ccc(S(=O)(=O)N2Cc3ccccc3CC2C(=O)O)cc1 (stereo not drawn) | 3000 nM | – | – | 300 nM | –
20 | O=C(NO)C1Cc2ccccc2CN1S(=O)(=O)c1ccc2ccccc2c1 (stereo not drawn) | 400 nM | – | 0.76 | 70 nM | –
21 | O=C(O)C1Cc2ccccc2CN1S(=O)(=O)c1ccc(Br)cc1 (stereo not drawn) | 5000 nM | – | – | 600 nM | –
22 | O=C(NO)C1Cc2ccccc2CN1S(=O)(=O)c1ccc(C(F)(F)F)cc1 (stereo not drawn) | 500 nM | – | 1 | 50 nM | –
23 | O=C(NO)C1Cc2ccccc2CN1S(=O)(=O)c1ccc2oc3ccccc3c2c1 (stereo not drawn) | 100 nM | – | 1 | 10 nM | –
24 | CCOC(=O)Oc1ccc2c(c1)CN(S(=O)(=O)c1ccc(OC)cc1)C(C(=O)NO)C2 (stereo not drawn) | 20 nM | – | 1 | 2 nM | –
25 | COc1ccc(S(=O)(=O)N2Cc3cc(NC(=O)CCC(=O)O)ccc3CC2C(=O)NO)cc1 (stereo not drawn) | 20 nM | – | -0.3 | 40 nM | –
26 | CC(=O)Nc1ccc(S(=O)(=O)N2Cc3ccccc3CC2C(=O)NO)cc1 (stereo not drawn) | – | – | 0.85 | – | –
27 | O=C(O)C1Cc2ccccc2CN1S(=O)(=O)c1ccc(Oc2ccccc2)cc1 (stereo not drawn) | 200 nM | – | – | 9 nM | –
28 | O=C(O)C1Cc2ccccc2CN1S(=O)(=O)c1ccc(-c2ccon2)s1 (stereo not drawn) | 2000 nM | – | – | 600 nM | –
29 | CN(C)c1ccc(-c2ccc(S(=O)(=O)N3Cc4ccccc4CC3C(=O)NO)cc2)cc1 (stereo not drawn) | 20 nM | – | 1 | 2 nM | –
30 | O=C(Nc1cccc(S(=O)(=O)N2Cc3ccccc3CC2C(=O)NO)c1)c1ccccc1O (stereo not drawn) | – | – | – | 200 nM | 10000 nM l-1
31 | O=C(NO)C1Cc2ccccc2CN1S(=O)(=O)Cc1ccc(-c2ccccn2)s1 (stereo not drawn) | 20 nM | – | 1 | 2 nM | –
32 | O=C(O)C1Cc2ccccc2CN1S(=O)(=O)c1ccc(Sc2ccccc2)cc1 (stereo not drawn) | 2000 nM | – | – | 200 nM | –
33 | COc1ccc(S(=O)(=O)N2Cc3ncn(C)c3C[C@@H]2C(=O)O)cc1 | – | – | 1 | 1000 nM | 10000 nM l-1
34 | COc1ccc(S(=O)(=O)N2Cc3ncn(C)c3C[C@@H]2C(=O)NO)cc1 | 20 nM | – | 0.82 | – | –
